Assays:
[1] = Equilibrium dialysis plasma protein binding in a multi-well container; type: in vitro ADME; details: human plasma vs buffer, 37° C. with gentle shaking, LC/MS detection
Experimental: This example illustrates equilibrium dialysis assays that were performed in a multi-well container of the invention to measure small molecule drug binding to plasma proteins. The assays included filling one well of a pair of wells that communicated via a chamber having a membrane disposed therein with human plasma and the other well of the pair with buffer. The assay included filling multiple pairs of wells in this manner. Each of the small molecules was dispensed into different wells containing plasma. The entire multi-well container was then heated at 37° C. with gentle shaking. […] Binding percentages were determined following detection using liquid chromatography/mass spectrometry.

[2] = literature value; cited from earlier work

Row | Human plasma binding percentage obtained in a multi-well container of the invention [1] [%] | SMILES | Plasma binding percentage stated in the literature [2] [%]
1 | 95 | CN(C)CCCN1c2ccccc2CCc2ccccc21 [Imipramine] | 95
2 | >99 | Cc1c(O)cccc1C(=O)N[C@@H](CSc1ccccc1)[C@H](O)CN1C[C@H]2CCCC[C@H]2C[C@H]1C(=O)NC(C)(C)C [Nelfinavir] | >98
3 | 91 | CC(C)NCC(O)COc1cccc2ccccc12 (stereo not shown) [Propranolol] | 93
4 | – | Cn1c(=O)c2[nH]cnc2n(C)c1=O [Theophylline] | 56
5 | – | CCCCNC(=O)NS(=O)(=O)c1ccc(C)cc1 [Tolbutamide] | 96
6 | 65 | COc1cc(Cc2cnc(N)nc2N)cc(OC)c1OC [Trimethoprim] | 44

— US20050112033A1, “Multi-well containers, systems, and methods of using the same” (IRM, LLC, priority 2003, published 2005)
